Test results from patent US9671405B2, “Identifying taxane sensitivity in prostate cancer patients” (Cornell University, priority 2012, dated 2017).

Assays:
Type in all cases: cell-based, human
[1] = system: ARv5,6,7; experiment: Nuclear localization of GFP-tagged ARv5,6,7 in M12 cells, confocal microscopy; conditions: 10 nM R1881 2 h
Source text: (§1) Cells were then fixed, immunostained for tubulin, and imaged for GFP-AR and tubulin by confocal microscopy. Androgen receptor is shown as lighter staining (green in the original), while tubulin staining is darker but visible as lighter areas in the images (red in the original). Representative, high-magnification images from each condition are shown. […] Scale bar: 10 μm. FIG. 9D is a bar graph depicting the ratio of cells with nuclear androgen receptor over those with cytoplasmic androgen receptor for each condition. […] Relative mRNA expression of TMPRSS2 and FKBP51 was assessed by qPCR. Values were corrected to GAPDH and normalized to untreated M12 cells expressing control lentivirus (M12 lenti). […] Androgen receptor protein expression was detected by staining with anti-androgen receptor or anti-ARN-21 antibodies. […] Cells were then fixed, immunostained for tubulin, and imaged for GFP-AR and tubulin by confocal microscopy. […]
(§2) In addition, M12 cells stably expressing GFP-tagged AR-wt, AR or variants were generated in Or Giannakakou's laboratory. GFP^+ cells from all three androgen receptor cell lines were sorted using fluorescence activated cell sorting (FACS) on a BD FACSAria II cell sorter (BD Biosciences, Franklin Lakes, N.J., USA) and subsequently expanded in media containing G418 ([…]). […]

[2] = system: ARv7; experiment: Nuclear localization of GFP-tagged ARv7 in M12 cells, confocal microscopy; conditions: 10 nM R1881 2 hr
Source text: as §1, §2

[3] = system: leucocytes; experiment: On-chip ex-vivo taxane treatment, microtubule bundling in leucocytes present on the chip; conditions: FIG. 5F patient (patient 4), 50 nM paclitaxel ex-vivo on-chip
Source text: FIG. 5A-5F illustrates on-chip assessment of effective drug-target engagement in viable GEDI-captured circulating tumor cells, and that tubulin responses to taxane treatment can be assessed in GEDI-captured cells. […] One ml of spiked blood was then passed through each of three GEDI devices. […] Following drug treatment, cells were fixed and processed for immunofluorescence staining using antibodies against tubulin and CD45. DAPI was used as a DNA counterstain to evaluate nuclear integrity. […] Following drug treatment, the PSMA-captured cells were fixed and processed for immunofluorescence staining as in FIG. 5A with the addition of cytokeratin-18 as an alternative epithelial marker. […]
For ex-vivo drug treatment experiments, the blood sample from each patient was divided and 1 ml was flown to each of three GEDI devices simultaneously. […] All circulating tumor cells (PSMA^+/CD45−/DAPI^+) were assessed for the presence of microtubule bundles as evidence of effective drug-target engagement. The percent of circulating tumor cells with evidence of microtubule bundling was calculated. In all samples analyzed, bundling was clearly apparent by the distinct shape, width, orientation and increased fluorescence intensity of microtubule bundles as compared with microtubules from untreated cells. […]

[4] = system: GEDI-captured circulating tumor cells from castration-resistant prostate cancer patients; experiment: On-chip ex-vivo taxane treatment of GEDI-captured patient circulating tumor cells, microtubule bundling as drug-target engagement
Source text: One ml of spiked blood was then passed through each of three GEDI devices. […] Following drug treatment, cells were fixed and processed for immunofluorescence staining using antibodies against tubulin and CD45. DAPI was used as a DNA counterstain to evaluate nuclear integrity. […] Following drug treatment, the PSMA-captured cells were fixed and processed for immunofluorescence staining as in FIG. 5A with the addition of cytokeratin-18 as an alternative epithelial marker.
For ex-vivo drug treatment experiments, the blood sample from each patient was divided and 1 ml was flown to each of three GEDI devices simultaneously. […] At the end of treatment, the GEDI-captured cells were fixed with PHEMO buffer and processed for multiplex confocal microscopy following immunostaining with different cell surface and cytoplasmic antibodies as indicated. […] The percent of circulating tumor cells with evidence of microtubule bundling was calculated. […] In addition, DAPI counterstain was used to assess the presence of mitotic or apoptotic nuclei following drug treatment.
The GEDI-captured circulating tumor cells were tested in situ (i.e., while in the GEDI device) to evaluate their chemosensitivity to taxanes, and predict a patient's clinical response to therapy. […] Microtubule bundling is the first event induced by taxane treatment, resulting in downstream mitotic arrest and apoptotic cell death, and is therefore an appropriate marker of efficient taxane drug-target engagement.

Compound	nuclear accumulation of ARv5,6,7 induced by R1881 [1]	nuclear accumulation of ARv7 induced by R1881 [2]	leucocytes present on the chip showing microtubule bundling [3] [%]	microtubule bundling of circulating tumor cells ([4]; patient 2, 100 nM or 1 uM paclitaxel ex-vivo on-chip)	response of circulating tumor cells to drug treatment ([4]; patient 4, 50 nM paclitaxel ex-vivo on-chip)	apoptotic nuclei in circulating tumor cells ([4]; patient docetaxel progressor on cabazitaxel, ex vivo 24 hr)	effect on microtubule cytoskeleton of captured circulating tumor cells ([4]; patient of FIG. 5B (docetaxel progressor), 100 nM ex vivo, 24 hr)	mitotic arrest of captured circulating tumor cells ([4]; same patient as FIG. 5B (FIG. 5C), ex vivo 24 hr)
C[C@]1(O)CC[C@H]2[C@@H]3CCC4=CC(=O)CCC4=C3C=C[C@@]21C [R1881, Methyltrienolone]	did not induce any further nuclear accumulation	does not increase nuclear accumulation	–	–	–	–	–	–
CC(=O)O[C@H]1C(=O)[C@@]2(C)[C@H]([C@H](OC(=O)c3ccccc3)[C@]3(O)C[C@H](OC(=O)[C@H](O)[C@@H](NC(=O)c4ccccc4)c4ccccc4)C(C)=C1C3(C)C)[C@]1(OC(C)=O)CO[C@@H]1C[C@@H]2O [paclitaxel]	–	–	~100	display microtubule bundling	heterogeneous response	exhibited apoptotic nuclei	clear evidence of microtubule bundling	signs of aberrant mitotic arrest
